Calls of active or inactive are those of the source. No cut-off for these calls is given here.
Assays:
Assay type in all cases: nucleic-acid assay
Calf thymus DNA [1] = experiment: Binding affinity to calf thymus DNA assessed as minor groove binding by measuring rise in absorbance at melting temperature between 76 and 77 degC by DNA melting studies based absorbance analysis; conditions: Bos taurus
Calf thymus DNA [2] = experiment: Binding affinity to calf thymus DNA assessed as groove binding by measuring blue-shift in maximum emission intensity of compound by fluorescence spectroscopy; conditions: Bos taurus
Calf thymus DNA [3] = experiment: Binding affinity to calf thymus DNA assessed as hypochromism at 50 uM by UV-Vis spectroscopy relative to control; conditions: Bos taurus
Calf thymus DNA [4] = experiment: Binding affinity to calf thymus DNA assessed as groove binding by measuring induced circular dichroism with negative signs around 370-380 nm by CD spectroscopy; conditions: Bos taurus
Calf thymus DNA [5] = experiment: Binding affinity to calf thymus DNA assessed as DNA intercalation by measuring helix stabilization by DNA melting studies based absorbance analysis; conditions: Bos taurus
Calf thymus DNA [6] = experiment: Binding affinity to calf thymus DNA assessed as bathochromic shift in maximum absorption at 50 uM by UV-Vis absorption spectroscopic method; conditions: Bos taurus
[7] = test system: Poly(dA-dT)oligonucleotide; experiment: Binding affinity to poly(dA:dT) dsDNA (unknown origin) assessed as increase in fluorescence intensity by fluorescence spectroscopy
Calf thymus DNA [8] = experiment: Binding affinity to calf thymus DNA assessed as binding constant by UV-Vis absorption spectroscopic method; conditions: Bos taurus
Calf thymus DNA [9] = experiment: Binding affinity to calf thymus DNA assessed as groove binding by measuring spectral changes up to compound:base pair concentration ratio of 1:39 in presence of 300 mM NaCl by UV-Vis spectroscopic method; conditions: Bos taurus
[10] = test system: Poly(dA-dT)oligonucleotide; experiment: Binding affinity to poly(dA:dT) dsDNA (unknown origin) assessed as binding constant by fluorescence spectroscopy
[11] = test system: Poly(dG-dC)oligonucleotide; experiment: Binding affinity to poly(dG:dC) dsDNA (unknown origin) assessed as increase in fluorescence intensity by fluorescence spectroscopy
[12] = test system: Poly(dG-dC)oligonucleotide; experiment: Binding affinity to poly(dG:dC) dsDNA (unknown origin) assessed as red shift in absorption maxima by UV-Vis spectroscopy
[13] = test system: Poly(dA-dT)oligonucleotide; experiment: Binding affinity to poly(dA:dT) dsDNA (unknown origin) assessed as increase in intensity with one ligand binding for two base pairs by UV-Vis spectroscopy
Calf thymus DNA [14] = experiment: Binding affinity to calf thymus DNA assessed as loss of vibronic fine structure at 50 uM by UV-Vis absorption spectroscopic method; conditions: Bos taurus
[15] = test system: Poly(dA-dT)oligonucleotide; experiment: Binding affinity to poly(dA:dT) dsDNA (unknown origin) assessed as red shift in absorption maxima by UV-Vis spectroscopy

Row | Compound | Activity (Calf thymus DNA [1]) | Activity (Calf thymus DNA [2]) | Activity (Calf thymus DNA [3]) [%] | Activity (Calf thymus DNA [4]) | Activity (Calf thymus DNA [5]) | Activity (Calf thymus DNA [6]) | Activity [7] | KB (Calf thymus DNA [8]) | Activity (Calf thymus DNA [9]) | K [10] [×10⁵ /M] | Activity [11] | Activity [12] | Activity [13] | Activity (Calf thymus DNA [14]) | Activity [15]
1 | C[n+]1cc(-c2c3ccccc3c(-c3cc4ccccc4[n+](C)c3)c3ccccc23)cc2ccccc21 | Active | Active | 56 | Active | inactive | Active | Active | 2.8 ×10⁵ /M |  |  |  |  |  |  | 
2 | C[n+]1ccc(-c2c3ccccc3c(-c3cc[n+](C)cc3)c3cc(C(C)(C)C)ccc23)cc1 | Active | Active | 66 | inactive | inactive | Active | Active | 7.3 ×10³ /M |  |  |  |  |  |  | 
3 | C[n+]1cccc(-c2c3ccccc3c(-c3ccc[n+](C)c3)c3ccccc23)c1 | Active | Active | 41 | Active | inactive | Active | Active | 1.8 ×10⁵ /M |  |  |  |  |  |  | 
4 | CCc1ccc2c(-c3cc[n+](C)cc3)c3ccccc3c(-c3cc[n+](C)cc3)c2c1 | Active | Active | 55 | Active | inactive | Active | Active | 1.2 ×10⁴ /M |  |  |  |  |  |  | 
5 | C[n+]1ccccc1-c1c2ccccc2c(-c2cccc[n+]2C)c2ccccc12 |  | inactive |  | inactive |  | inactive | inactive |  |  |  |  |  |  |  | 
6 | C[n+]1ccc(-c2c3ccccc3c(-c3cc[n+](C)cc3)c3ccccc23)cc1 | Active | Active | 74 | Active | inactive | Active | Active | 8.4 ×10⁴ /M | Active | 1.6 | inactive | inactive | Active | Active | Active
7 | c1ccc2c(-c3ccncc3)c3ccccc3c(-c3ccncc3)c2c1 |  |  |  |  |  | inactive |  |  |  |  |  |  |  |  | 
8 | Cc1ccc2c(-c3cc[n+](C)cc3)c3ccccc3c(-c3cc[n+](C)cc3)c2c1 | Active | Active | 41 | Active | inactive | Active | Active | 6.2 ×10⁴ /M |  | 1 |  |  |  |  | 

Source: ChEMBL document CHEMBL4627339, “Structural motives controlling the binding affinity of 9,10-bis(methylpyridinium)anthracenes towards DNA” (Bioorg Med Chem, 2020)
